Key:
Tetranychus urticae = assay: Tetranychus test, OP-resistant (TETRUR spray treatment), bean leaf discs; format: in vivo; conditions: for efficacy in %: application rate 500 g/ha, after 6 days
Procedure: Tetranychus Test, OP-Resistant (TETRUR Spray Treatment)
After a time of 6 days, the efficacy in % is determined.

[1] = log P by HPLC, EEC Directive 79/831 Annex V.A8, method a); format: physicochemical
Procedure: (§1) ^a) Note regarding the determination of the log P values and mass detection The determination of the given log P values was carried out in accordance with EEC Directive 79/831 Annex V.A8 by HPLC (High Performance Liquid Chromatography) on a reversed-phase column (C18). Agilent 1100 LC system; 50*4.6 Zorbax Eclipse Plus C18 1.8 micron; mobile phase A: acetonitrile (0.1% formic acid); mobile phase B: water (0.09% formic acid); linear gradient from 10% acetonitrile to 95% acetonitrile in 4.25 min, then 95% acetonitrile for a further 1.25 min; oven temperature 55° C.; flow rate: 2.0 ml/min Mass detection is via an Agilend MSD system.
as §1, with “mass detection:” for “mass detection”, “2.0 ml/min.” for “2.0 ml/min”

Phaedon cochleariae = assay: Phaedon test (PHAECO spray treatment), Chinese cabbage leaf discs; conditions: application rate 500 g/ha; after 7 days
Spodoptera frugiperda = Spodoptera frugiperda test (SPODFR spray treatment), maize leaf discs; format: in vivo; conditions: application rate 500 g/ha; after 7 days
Excerpt: Spodoptera frugiperda Test (SPODFR Spray Treatment)

Myzus persicae = assay: Myzus test (MYZUPE spray treatment); format: in vivo; conditions: for efficacy in %: application rate 500 g/ha, after 6 days
Procedure: Myzus test (Myzupe spray treatment)
After 6 days, the efficacy in % is determined.
Myzus Test (MYZUPE Spray Treatment)

[2] = reversed-phase C18 HPLC column; HPLC-MS method a), reversed-phase C18, acetonitrile/water with formic acid
[3] = cell marked a): HPLC, reversed-phase C18, acetonitrile/water with formic acid, gradient 10% to 95% acetonitrile
[4] = cell prints no method mark; Ex. 40 value equals the log P given under method a)
[5] = reversed-phase HPLC column (C18); cell prints no method mark; Ex. 40 value equals the log P given under method a)

Row | SMILES | logP [1, 4] | further results
1 | Cn1nc(C2(F)CC2)c(Br)c1C(=O)Nc1ccc(Cl)c(C(=O)NC2(C#N)CC2)c1 [Example 1, 4-Bromo-N-{4-chloro-3-[(1-cyanocyclopropyl)carbamoyl]phenyl}-3-(1-fluorocyclopropyl)-1-methyl-1H-pyrazole-5-carboxamide] |  | efficacy in % (Tetranychus urticae): 100%; chromatographic logP [1, 2]: 2.5; efficacy in % (Phaedon cochleariae): 100%
2 | CN(C(=O)c1c(Cl)c(C2(Cl)CC2)nn1C)c1ccc(Cl)c(C(=O)NC2(C#N)CC2)c1 [Example 3] |  | efficacy in % (Tetranychus urticae): 100%; logP [1, 3]: 2.46 ^a); efficacy in % (Phaedon cochleariae): 100%
3 | CCN(C(=O)c1cc(N(C)C(=O)c2c(C(F)(F)F)c(C(F)(F)C(F)(F)F)nn2C)ccc1Cl)C1(C#N)CC1 [Example 4] |  | efficacy in % (Spodoptera frugiperda): 100%; efficacy in % (Myzus persicae): 100%; efficacy in % (Tetranychus urticae): 100%; logP [1, 3]: 3.77 ^a); efficacy in % (Phaedon cochleariae): 100%
4 | CN(C(=O)c1c(C(F)(F)F)c(C(F)(F)C(F)(F)F)nn1C)c1ccc(Cl)c(C(=O)N(C)C2(C#N)CC2)c1 [Example 5] |  | efficacy in % (Spodoptera frugiperda): 100%; efficacy in % (Myzus persicae): 90%; efficacy in % (Tetranychus urticae): 100%; logP [1, 3]: 3.59 ^a); efficacy in % (Phaedon cochleariae): 100%
5 | Cn1nc(C(F)(F)C(F)(F)F)c(C(F)(F)F)c1C(=O)N(Cc1ccc(Cl)cc1)c1ccc(Cl)c(C(=O)NC2(C#N)CC2)c1 [Example 28] | 4.30 | 
6 | CC(C)C(=O)N(C(=O)c1c(C(F)(F)F)c(C(F)(F)C(F)(F)F)nn1C)c1ccc(Cl)c(C(=O)NC2(C#N)CC2)c1 [Example 29] | 4.38 | 
7 | CC#CCN(C(=O)c1c(C(F)(F)F)c(C(F)(F)C(F)(F)F)nn1C)c1ccc(Cl)c(C(=O)NC2(C#N)CC2)c1 [Example 30] | 3.60 | 
8 | Cn1nc(C(F)(F)C(F)(F)F)c(C(F)(F)F)c1C(=O)N(Cc1ccccc1)c1ccc(Cl)c(C(=O)NC2(C#N)CC2)c1 [Example 31] | 3.97 | 
9 | Cn1nc(C(F)(F)C(F)(F)F)c(C(F)(F)F)c1C(=O)N(Cc1ccccn1)c1ccc(Cl)c(C(=O)NC2(C#N)CC2)c1 [Example 32] | 3.53 | 
10 | CCC(=O)N(C(=O)c1c(C(F)(F)F)c(C(F)(F)C(F)(F)F)nn1C)c1ccc(Cl)c(C(=O)NC2(C#N)CC2)c1 [Example 33] | 3.91 | 
11 | CCn1nc(C(F)(F)C(F)(F)F)c(C(F)(F)F)c1C(=O)Nc1ccc(Cl)c(C(=O)NC2(C#N)CC2)c1 [Example 34] | 3.53 | 
12 | CCCn1nc(C(F)(F)C(F)(F)F)c(C(F)(F)F)c1C(=O)Nc1ccc(Cl)c(C(=O)NC2(C#N)CC2)c1 [Example 35] | 3.87 | 
13 | CCCn1nc(C(F)(F)C(F)(F)F)c(C(F)(F)F)c1C(=O)Nc1ccc(F)c(C(=O)NC2(C#N)CC2)c1 [Example 36] | 3.74 | 
14 | CCn1nc(C(F)(F)C(F)(F)F)c(C(F)(F)F)c1C(=O)Nc1ccc(F)c(C(=O)NC2(C#N)CC2)c1 [Example 37] | 3.44 | 
15 | CCn1nc(C(F)(F)C(F)(F)F)c(C(F)(F)F)c1C(=O)N(C)c1ccc(Cl)c(C(=O)NC2(C#N)CC2)c1 [Example 38] | 3.57 | 
16 | CC(=O)N(C(=O)c1cc(NC(=O)c2c(C(F)(F)F)c(C(F)(F)C(F)(F)F)nn2C)ccc1Cl)C1(C#N)CC1 [Example 40, N-{3-[Acetyl(1-cyanocyclopropyl)carbamoyl]-4-chlorophenyl}-1-methyl-3-(pentafluoroethyl)-4-(trifluoromethyl)-1H-pyrazole-5-carboxamide] |  | chromatographic logP [1, 2]: 3.81; chromatographic logP [1, 5]: 3.81
17 | CCn1nc(C(F)(F)C(F)(F)F)c(C(F)(F)F)c1C(=O)N(C)c1ccc(Cl)c(C(=O)N(C)C2(C#N)CC2)c1 [Example 41] | 3.85 | 
18 | CSc1c(C(F)(F)C(F)(F)F)nn(C)c1C(=O)Nc1ccc(Cl)c(C(=O)NC2(C#N)CC2)c1 [Example 42] | 3.43 | 
19 | CCN(C(=O)c1c(C(F)(F)F)c(C(F)(F)C(F)(F)F)nn1CC)c1ccc(Cl)c(C(=O)NC2(C#N)CC2)c1 [Example 43] | 3.68 | 
20 | Cn1nc(C(F)(F)C(F)(F)F)c(C(F)(F)F)c1C(=O)N(CC#N)c1ccc(Cl)c(C(=O)NC2(C#N)CC2)c1 [Example 44] | 3.25 | 
21 | Cn1nc(C(F)(F)C(F)(F)F)c([S+](C)[O-])c1C(=O)Nc1ccc(Cl)c(C(=O)NC2(C#N)CC2)c1 (centres unmarked) [Example 45] | 2.91 | 
22 | CCCn1nc(C(F)(F)C(F)(F)F)c(C(F)(F)F)c1C(=O)N(C)c1ccc(Cl)c(C(=O)N(C)C2(C#N)CC2)c1 [Example 46] | 4.26 | 

Row | SMILES | logP [1, 4] | further results
23 | CCCn1nc(C(F)(F)C(F)(F)F)c(C(F)(F)F)c1C(=O)N(C)c1ccc(F)c(C(=O)N(C)C2(C#N)CC2)c1 [Example 47] | 4.05 | 
24 | CCn1nc(C(F)(F)C(F)(F)F)c(C(F)(F)F)c1C(=O)N(C)c1ccc(F)c(C(=O)N(C)C2(C#N)CC2)c1 [Example 48] | 3.76 | 
25 | Cn1nc(C(F)(F)C(F)(F)F)c(S(C)(=O)=O)c1C(=O)Nc1ccc(Cl)c(C(=O)NC2(C#N)CC2)c1 [Example 49] | 2.47 | 
26 | CCCn1nc(C(F)(F)C(F)(F)F)c(C(F)(F)F)c1C(=O)N(CC)c1ccc(Cl)c(C(=O)NC2(C#N)CC2)c1 [Example 50, N-{4-Chloro-3-[(1-cyanocyclopropyl)carbamoyl]phenyl}-N-ethyl-3-(pentafluoroethyl)-1-propyl-4-(trifluoromethyl)-1H-pyrazole-5-carboxamide] |  | chromatographic logP [1, 2]: 4.06; chromatographic logP [1, 5]: 4.06
27 | CCCn1nc(C(F)(F)C(F)(F)F)c(C(F)(F)F)c1C(=O)N(CC)c1ccc(Cl)c(C(=O)N(CC)C2(C#N)CC2)c1 [Example 51] | 4.68 | 
28 | CCN(C(=O)c1c(C(F)(F)F)c(C(F)(F)C(F)(F)F)nn1CC)c1ccc(Cl)c(C(=O)N(CC)C2(C#N)CC2)c1 [Example 52] | 4.26 | 
29 | CC(=O)N(C(=O)c1c(C(F)(F)F)c(C(F)(F)C(F)(F)F)nn1C)c1ccc(Cl)c(C(=O)NC2(C#N)CC2)c1 [Example 53] | 3.63 | 
30 | Cn1nc(C(F)(F)C(F)(F)F)c(C(F)(F)F)c1C(=O)N(Cc1cccnc1)c1ccc(Cl)c(C(=O)NC2(C#N)CC2)c1 [Example 54] | 2.85 | 
31 | C=C(C)CN(C(=O)c1c(C(F)(F)F)c(C(F)(F)C(F)(F)F)nn1C)c1ccc(Cl)c(C(=O)NC2(C#N)CC2)c1 [Example 55] | 3.78 | 
32 | Cn1nc(C(F)(F)C(F)(F)F)c(C(F)(F)F)c1C(=O)N(Cc1ccncc1)c1ccc(Cl)c(C(=O)NC2(C#N)CC2)c1 [Example 56] | 2.52 | 
33 | C#CCn1nc(C(F)(F)C(F)(F)F)c(C(F)(F)F)c1C(=O)Nc1ccc(Cl)c(C(=O)NC2(C#N)CC2)c1 [Example 57] | 3.58 | 
34 | C=CCn1nc(C(F)(F)C(F)(F)F)c(C(F)(F)F)c1C(=O)Nc1ccc(Cl)c(C(=O)NC2(C#N)CC2)c1 [Example 58] | 3.65 | 
35 | Cn1nc(C(F)(F)C(F)(F)F)c(C(F)(F)F)c1C(=O)Nc1cc(F)c(Br)c(C(=O)NC2(C#N)CC2)c1 [Example 59] | 3.58 | 
36 | CCC(=O)N(C(=O)c1c(C(F)(F)F)c(C(F)(F)C(F)(F)F)nn1C)c1ccc(Cl)c(C(=O)N(C(=O)CC)C2(C#N)CC2)c1 [Example 60] | 4.68 | 
37 | CCN(C(=O)c1cc(NC(=O)c2c(C(F)(F)F)c(C(F)(F)C(F)(F)F)nn2C)ccc1Cl)C1(C#N)CC1 [Example 61] | 3.86 | 
38 | CN(C(=O)c1cc(NC(=O)c2c(C(F)(F)F)c(C(F)(F)C(F)(F)F)nn2C)ccc1Cl)C1(C#N)CC1 [Example 62] | 3.66 | 
39 | CC(C)OC(=O)N(C(=O)c1c(C(F)(F)F)c(C(F)(F)C(F)(F)F)nn1C)c1ccc(Cl)c(C(=O)NC2(C#N)CC2)c1 [Example 63] | 4.19 | 
40 | N#CC1(NC(=O)c2cc(NC(=O)c3c(C(F)(F)F)c(C(F)(F)C(F)(F)F)nn3CC(F)(F)F)ccc2Cl)CC1 [Example 64] | 3.60 | 
41 | Cn1nc(C(F)(F)C(F)(F)F)c(C(F)(F)F)c1C(=O)Nc1ccc(F)c(C(=O)NC2CC2)c1 [Ik-155, reference compound] |  | inhibition at 100 g/ha (Myzus persicae; Myzus persicae, 144 h, MYZUPE, 100 g/ha, 6 dat): 0%; inhibition at 100 g/ha (Tetranychus urticae; Tetranychus urticae, foliar, 144 h, TETRUR, 100 g/ha, 6 dat): 0%
42 | COC(=O)c1c(SC)c(C(F)(F)C(F)(F)F)nn1C [methyl 1-methyl-4-(methylsulphanyl)-3-(pentafluoroethyl)-1H-pyrazole-5-carboxylate] |  | chromatographic logP [1, 2]: 3.51
43 | COC(=O)c1c([N+](=O)[O-])c(C(F)(F)C(F)(F)F)nn1C [methyl 1-methyl-4-nitro-3-(pentafluoroethyl)-1H-pyrazole-5-carboxylate] |  | chromatographic logP [1, 2]: 3.18
44 | COC(=O)c1c(N)c(C(F)(F)C(F)(F)F)nn1C [methyl 4-amino-1-methyl-3-(pentafluoroethyl)-1H-pyrazole-5-carboxylate] |  | chromatographic logP [1, 2]: 2.52
